Data reported in PMC10680097 (Biochemistry, 2023).

What was measured:
[1] = system: C4-reductase (HS:51/HS:53); assay: NADPH oxidation at […] nm; format: biochemical, Campylobacter jejuni; conditions: apparent; 300 μM NADPH, 50 mM HEPES pH 7.5, 30 °C; substrate made with Cj1427
[2] = target: T1, C3/C5-epimerase (HS:42) (Campylobacter jejuni, UniProt F2X7E5); assay: coupled turnover of purified […] to […], D2O exchange at C3 and C5, ESI-MS; format: biochemical; conditions: 5.0 mM NADPH and HS:42 C4-reductase, pH 8.0, 40 h
T1 construct: gene HS42.11
T1 sequence (F2X7E5 entry or part of it): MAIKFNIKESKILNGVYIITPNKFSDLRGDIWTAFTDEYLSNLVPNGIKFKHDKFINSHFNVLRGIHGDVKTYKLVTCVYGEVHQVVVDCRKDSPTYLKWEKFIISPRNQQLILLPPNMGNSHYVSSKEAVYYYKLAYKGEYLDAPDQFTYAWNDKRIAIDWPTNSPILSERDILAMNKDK

Question: For Nc1nc2c(ncn2[C@@H]2O[C@H](COP(=O)(O)OP(=O)(O)O[C@H]3O[C@H]([C@H](O)CO)C(=O)[C@H](O)[C@@H]3O)[C@@H](O)[C@H]2O)c(=O)[nH]1 [compound 22, GDP-D-glycero-4-keto-α-D-lyxo-heptose], which Km [1] is on record?
Answer: 53 ± 6 µM

Question: What about the “coupled turnover of purified 22 to 30, D2O exchange at C3 and C5, ESI-MS” value [2] of the same molecule?
Answer: Epimerases from the same serotype of each C4-reductase were used for each reaction
